From patent US20120329770A1, “CEPHALOSPORIN DERIVATIVES USEFUL AS BETA-LACTAMASE INHIBITORS AND COMPOSITIONS AND METHODS OF USE THEREOF” (priority 2010, published 2012) come the findings set out here.

What all share (assay): Inhibition of β-lactamases, nitrocefin hydrolysis
Format in all cases: biochemical

Test [1] deals with class D β-lactamase OXA-45 (Pseudomonas aeruginosa, UniProt Q7WZC7). Here is the method: OXA-45 β-lactamase was purified in the laboratory of Prof. T. Walsh (University of Bristol, UK) according to the method published (Toleman, M. A.; Rolston, K.; Jones, R. N.; Walsh, T. R. Antimicrob. Agents Chemother. 2003, 47, 2859-2863) and provided to this laboratory as a kind gift.
Sequence of class D β-lactamase OXA-45 (Q7WZC7 entry or part of it): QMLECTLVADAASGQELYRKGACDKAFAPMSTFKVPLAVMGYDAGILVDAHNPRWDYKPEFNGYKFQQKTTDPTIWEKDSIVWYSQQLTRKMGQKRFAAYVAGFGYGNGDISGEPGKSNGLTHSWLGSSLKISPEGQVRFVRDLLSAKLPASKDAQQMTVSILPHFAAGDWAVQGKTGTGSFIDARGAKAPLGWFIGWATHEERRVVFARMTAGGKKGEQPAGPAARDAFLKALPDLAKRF
(§1) Assay conditions for IC50 determinations involved enzyme concentrations ranging between 2 and 6 nM. The concentration used for the nitrocefin substrate was 100 μM. Assays with OXA-10 and OXA-45 were conducted at pH 7.0 with 100 mM sodium phosphate buffer containing 25 mM sodium bicarbonate. Assays with KPC-2 and GC1 were performed at pH 7.0 in 50 mM HEPES buffer and assays with IMP-1 and VIM-2 were performed in the same buffer with the addition of 500 mM NaCl and 1 μM ZnSO4. BSA was used with all enzymes (except OXA-10 and KPC-2) at concentrations of 0.5-1.0 μg/mL.
(§2) Inhibitors were pre-incubated for 10 minutes at room temperature with enzyme assay solutions prior to the addition of the nitrocefin. These compounds were dissolved in DMSO and prepared at various concentrations such that the final concentration of DMSO was 1% during the pre-incubation. The reaction was initiated by the addition of the pre-incubated enzyme-cyclobutanone solution (90 μL) to a solution of nitrocefin in buffer (10 μL). Enzymatic activity was determined using the initial rate of increase in absorbance at 482 nm

Test [2] deals with class B β-lactamase NDM-1 (Klebsiella pneumoniae, UniProt C7C422). Conditions: 15 μM nitrocefin.
Sequence of class B β-lactamase NDM-1 (C7C422 29-270, looked up): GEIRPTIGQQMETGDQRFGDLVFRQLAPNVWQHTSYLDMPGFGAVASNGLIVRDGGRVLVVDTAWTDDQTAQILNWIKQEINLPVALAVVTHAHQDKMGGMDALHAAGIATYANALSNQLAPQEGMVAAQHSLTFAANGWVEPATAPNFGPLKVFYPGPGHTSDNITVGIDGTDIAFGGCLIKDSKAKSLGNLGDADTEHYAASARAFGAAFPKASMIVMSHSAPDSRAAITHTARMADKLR
A further test has as its target T1, class C β-lactamase GC1 (Enterobacter cloacae, UniProt Q59401).
T1 construct: made in house; host or cells: Escherichia coli AS226-51 harbouring pCS100
The settings on record: nitrocefin 100 μM, 10 min pre-incubation. Here is the method:
GC1 β-lactamase was purified from Escherichia coli AS226-51 harbouring pCS100, which was a generous gift from Prof. M. Nukaga (Josai International University, Japan). The cell culture was harvested and subjected to a stringent periplasmic lysis protocol according to Crichlow et al. (Biochemistry 1999, 38, 10256-10261.). Purification proceeded similarly to Nukaga et al. (J. Biol. Chem. 2004, 279, 9344-9352.) with cation exchange chromatography (CM Sephadex C-50) equilibrated with 10 mM sodium phosphate buffer (pH 6), followed by elution with a stepwise gradient of increasing NaCl concentration. Fractions containing β-lactamase activity were then applied to a phenylboronate column (MoBiTec, Germany), equilibrated with 20 mM triethanolamine.HCl, pH 7.0, 0.5 M NaCl. The column was washed with the same buffer and then eluted with sterile 0.5 M borate buffer, pH 7.0, 0.5 M NaCl. Active fractions eluted from the phenylboronate column were analyzed for purity via SDS-PAGE, pooled, and concentrated before buffer exchange to 100 mM sodium phosphate, pH 7.0.
(§3) Assay conditions for IC50 determinations involved enzyme concentrations ranging between 2 and 6 nM. […]
(§4) Inhibitors were pre-incubated for 10 minutes at room temperature with enzyme assay solutions prior to the addition of the nitrocefin. […] Enzymatic activity was determined using the initial rate of increase in absorbance at 482 nm

The target of test [3] is T2, class D β-lactamase OXA-10 (Pseudomonas aeruginosa, UniProt P14489).
T2 construct: indicating a post-translational deletion of a 20 amino acid signal peptide; made in house; host or cells: Escherichia coli BL21 (DE3), pET24a-blaOXA-10, purified from culture supernatant
T2 sequence (P14489 20-266): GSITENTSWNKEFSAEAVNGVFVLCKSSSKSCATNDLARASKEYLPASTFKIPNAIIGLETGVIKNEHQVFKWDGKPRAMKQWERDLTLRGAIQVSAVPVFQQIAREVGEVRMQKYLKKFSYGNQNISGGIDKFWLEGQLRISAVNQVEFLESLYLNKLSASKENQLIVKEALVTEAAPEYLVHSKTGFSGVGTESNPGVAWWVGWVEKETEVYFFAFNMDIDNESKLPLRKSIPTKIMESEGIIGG
From the text: OXA-10 β-lactamase was expressed and purified using a modified protocol of that reported by Golemi et al. (J. Am. Chem. Soc. 2000, 122, 6132-6133). The pET24a plasmid with the blaOXA-10 gene insert, a kind gift from Prof. S. Mobashery (Notre Dame University), was transformed into Escherichia coli BL21 (DE3) and induced with IPTG. Purification of the enzyme was achieved by the addition of ammonium sulfate to the induced culture supernatant. The protein precipitate collected (50-70% ammonium sulfate saturation) was dissolved and dialyzed against 10 mM Tris.SO4 buffer, pH 7.5, and further purified with a DE52 cellulose column (Whatman, UK) equilibrated with the same buffer. The material bound to the column was washed with 10 mM Tris.SO4 buffer, pH 7.5, followed by an elution with a K2SO4 gradient (0-100 mM). Protein fractions containing nitrocefin-hydrolyzing activity were concentrated and purity analyzed by SDS-PAGE. A molecular weight of 27,490 Da for OXA-10 was determined by ESI MS, indicating a post-translational deletion of a 20 amino acid signal peptide.
as §3, §4

Test [4] deals with T3, IMP-1 metallo-β-lactamase (Serratia marcescens, UniProt P52699).
T3 construct: made in house; host or cells: Escherichia coli BL21(DE3) carrying pCIP4
T3 sequence (P52699 19-246, looked up): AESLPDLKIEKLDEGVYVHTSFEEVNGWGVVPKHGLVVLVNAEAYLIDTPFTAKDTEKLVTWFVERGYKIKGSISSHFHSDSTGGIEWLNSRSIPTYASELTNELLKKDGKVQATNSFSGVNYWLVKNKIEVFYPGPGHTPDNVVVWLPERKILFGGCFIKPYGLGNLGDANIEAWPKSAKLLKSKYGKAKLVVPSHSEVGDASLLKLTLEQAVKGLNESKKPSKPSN
From the text: IMP-1 metallo-β-lactamase was expressed in Esherichia coli BL21(DE3) carrying pCIP4 and purified as reported by Laraki et al. (Antimicrob. Agents Chemother. 1999, 43, 902-906). The homogeneity of the protein was confirmed by SDS-PAGE according to the method of Laemmli (Nature 1970, 227, 680-685). The molecular weight of purified IMP-1, Mr=25,112±0.5 Da, as determined by ESI-MS, was in agreement with that deduced from its amino acid sequence (Laraki et al. Antimicrob. Agents Chemother. 1999, 43, 890-901).
as §1, §2

The target in test [5] is T4, VIM-2 metallo-β-lactamase (Pseudomonas aeruginosa, UniProt Q9K2N0).
T4 construct: made in house; host or cells: Escherichia coli BL21 (DE3) pLysS carrying pNOR2001
Conditions: nitrocefin 100 μM, 10 min pre-incubation; read-out: IC50 VIM-2 (Class B). How it is done: VIM-2 metallo-β-lactamase was expressed in Escherichia coli BL21 (DE3) pLysS carrying pNOR2001 (a generous gift from P. Nordmann, Université Paris XI, France) and purified as reported by Poirel et al. (Antimicrob. Agents Chemother. 2000, 44, 891-897). The homogeneity and molecular weight of the mature VIM-2 (29.7 kDa) was determined by SDS-PAGE (Laemmli, U. K. Nature 1970, 227, 680-685). Enzyme concentration was determined from the absorbance at 280 nm (εEM=32,000 M^−1 cm^−1).
as §1, §4

Test [6] has as its target T5, class A β-lactamase KPC-2 (Klebsiella pneumoniae, UniProt Q9F663).
T5 construct: calculated for a mature protein with a 24 amino acid signal peptide removed; made in house; host or cells: Escherichia coli DH5α (pBR322-catI-blaKPC-2)
The settings on record: nitrocefin 100 μM, 10 min pre-incubation. How it is done: The KPC-2 β-lactamase was purified from Escherichia coli DH5α strain containing the plasmid, pBR322-catI-blaKPC-2, which was kindly provided by Prof. F. van den Akker (Case Western Reserve University). Expression and purification of the enzyme was similar to that reported by Ke et al. (Biochemistry 2007, 46, 5732-5740). A molecular weight of 28,472 Da for the purified KPC-2 was determined by ESI MS. This is in close agreement with that calculated for a mature protein with a 24 amino acid signal peptide removed.
as §1, §4

Each structure is given as a SMILES string. pIC50: −log10 of the molar value.

T5 sequence (Q9F663 25-293, looked up): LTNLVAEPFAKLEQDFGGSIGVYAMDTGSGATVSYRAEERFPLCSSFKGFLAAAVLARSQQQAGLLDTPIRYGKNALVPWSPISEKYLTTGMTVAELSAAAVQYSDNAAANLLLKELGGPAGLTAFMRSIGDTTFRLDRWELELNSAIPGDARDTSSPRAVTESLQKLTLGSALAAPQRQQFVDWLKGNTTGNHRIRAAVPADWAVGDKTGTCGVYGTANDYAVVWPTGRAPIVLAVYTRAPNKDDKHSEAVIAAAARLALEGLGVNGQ
T1 sequence (Q59401 entry or part of it): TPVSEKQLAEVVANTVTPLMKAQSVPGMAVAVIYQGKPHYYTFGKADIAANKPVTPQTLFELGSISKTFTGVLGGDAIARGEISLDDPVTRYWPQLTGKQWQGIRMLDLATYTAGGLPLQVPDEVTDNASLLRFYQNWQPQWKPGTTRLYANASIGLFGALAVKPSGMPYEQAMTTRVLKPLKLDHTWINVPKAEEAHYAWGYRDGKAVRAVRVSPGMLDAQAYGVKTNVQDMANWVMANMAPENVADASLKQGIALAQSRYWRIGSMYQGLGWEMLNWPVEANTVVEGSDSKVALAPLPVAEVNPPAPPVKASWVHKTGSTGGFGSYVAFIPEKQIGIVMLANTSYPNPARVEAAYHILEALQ

A word on the pIC50: it is the IC50 on a negative log10 scale, so that one unit is a factor of ten. `O=C(Cc1cccs1)N[C@@H]1C(=O)N2C(C(=O)O)=C(CSC(=O)c3ccccc3)CS[C@H]12` [drawing 27]: the negative logarithm of the IC50 (pIC50) in test [1] is 4.62; in test [2], 4.48; at class C β-lactamase GC1, 3.85; in test [3], 5.09; in test [4], 5.51; in test [5] it was 5.74. In test [6], this compound showed a pIC50 of 4.15.
